One assay addresses T1, AHR-Hsp90-XAP2 (Homo sapiens, UniProt P35869).
T1 construct: made in house
In words: Thermal stability measurements (nano-DSF). It counts as binding. As to conditions: 2.5 μM protein, 12.5 μM compound. The procedure:
Thermal denaturation experiments of AHR complexes in the presence of compounds were performed using a Tycho NT.6 instrument (NanoTemper Technologies). Protein samples were prepared as previously described[67] and subsequently diluted in the buffer containing 20 mM Bis-Tris–HCl pH 7.0, 50 mM NaCl, 10 mM KCl, 10 mM MgCl2, 20 mM Na2MoO4 and 2 mM β-mercaptoethanol to a final protein concentration of 2.5 μM. Compound stock solutions were prepared at 20 mM in DMSO and added to the protein samples to yield a final concentration of 12.5 μM. For control measurements, DMSO was added to a final concentration of 5% (v/v). Following ligand or DMSO addition, the samples were gently mixed and incubated at room temperature for 10 min to allow equilibration. Thermal denaturation profiles were acquired over a temperature range of 35°C–95°C, with a heating rate of 1 °C per min. Fluorescence was monitored at emission wavelengths of 330 nm and 350 nm, and the data were analyzed as the first derivative of the fluorescence ratio (F330/F350) as a function of temperature. All experiments were performed in triplicate, and data were analyzed using the Tycho NT.6 software (NanoTemper Technologies) according to the manufacturer’s recommendations.

In assay [1] the test system is ER+ MCF-7, ZR75–1, and T47D breast cancer cells. Also noted: method as in PMID 37520743. As to conditions: previously identified ref 17; cited from earlier work.
The target of the next assay is T2, hERα (Homo sapiens, UniProt P03372).
T2 construct: expressed in transfected cells; host or cells: HeLa (HELN hERα)
T2 sequence (P03372 1-595): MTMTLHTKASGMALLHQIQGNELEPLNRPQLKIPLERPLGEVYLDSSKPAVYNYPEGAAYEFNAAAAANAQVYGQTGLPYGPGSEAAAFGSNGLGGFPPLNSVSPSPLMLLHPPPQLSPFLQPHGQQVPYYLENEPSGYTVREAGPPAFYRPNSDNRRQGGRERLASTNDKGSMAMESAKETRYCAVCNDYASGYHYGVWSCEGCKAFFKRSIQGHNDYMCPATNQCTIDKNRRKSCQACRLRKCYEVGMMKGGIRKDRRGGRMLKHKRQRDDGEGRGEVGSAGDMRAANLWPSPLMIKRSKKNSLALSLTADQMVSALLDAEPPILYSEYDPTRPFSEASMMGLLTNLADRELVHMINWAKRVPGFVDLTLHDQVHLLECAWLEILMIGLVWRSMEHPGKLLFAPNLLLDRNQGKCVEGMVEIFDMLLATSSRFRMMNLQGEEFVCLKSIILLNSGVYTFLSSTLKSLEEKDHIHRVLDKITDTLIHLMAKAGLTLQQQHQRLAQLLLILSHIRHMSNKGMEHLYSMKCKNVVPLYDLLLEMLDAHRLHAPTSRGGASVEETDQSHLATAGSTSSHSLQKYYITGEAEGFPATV
In words: ER/ERE luciferase reporter assay in HELN hERα cells. The settings on record: 10 nM–10 μM compound, with E2, 24 h. It counts as cell-based. From the text: To characterize the chemical induced AHR activity, we used the already established HAHLH reporter cell lines obtained by stably expression of HeLa cells with the dioxin-responsive gene XRE(TnGCGTG)3-tata-luciferase-Luc-hygromycin plasmid.[29] The reporter HELN hERα cell line was obtained by transfecting human HeLa cells with the ERE-responsive gene ERE-βGlobin-luciferase-Luc-neomycin and the pSG5-hERα-puromycin plasmids as previously described.[59] To determine the action of the chemical on AHR and hERα activity, cells were seeded at a density of 50,000 cells per well in 96-well white opaque tissue culture plates (Greiner CellStar) in 150 μL of Dulbecco’s Modified Eagle Medium: Nutrient Mixture F-12 (DMEM/F- 12) without phenol red and 1 g/L glucose and supplemented with 5% stripped fetal bovine serum, 100 units/mL of penicillin, 100 μg/mL of streptomycin (test medium). Twenty-four hours later, chemicals to be tested were added at 4x concentration in culture medium, and cells were incubated at 37 °C for 8 h (HAhLH cells) or 24 h (HELN hERα cells). At the end of the incubation period, culture medium was replaced with test medium containing 0.3 mM luciferin and luciferase activity was measured for 2 s in intact living cells using a MicroBeta Wallac luminometer (PerkinElmer). Tests were performed in quadruplicate at 4x concentration in the same medium in at least 4 independent experiments. Results were expressed as % of the maximal luciferase activity. […] Effective concentration (ECs) for a given compound, EC50 is defined as the concentration inducing 50% of its maximal effect. The EC50 values were calculated including the adjustment for the basal activity of the cell line.
(A reporter such as luciferase makes a cellular process visible.)

Another assay concerns ERα in MCF-7 cells. In words: Immunoblot of ERα in MCF-7 cells. It counts as cell-based, human. As to conditions: MCF-7, 48 h, increasing concentrations up to 1 μM. Here is the method: To determine the relative expression of proteins by Western blotting, cells were first washed with ice-cold phosphate buffered saline (PBS). Subsequently, they were lysed in ice-cold NP40 lysis buffer (1%NP-40, 50 mM Tris-HCl, pH 8.0, 150 mM NaCl, 5 mM Ethylenediaminetetraacetic acid [EDTA], 1 mM PMSF) on ice. DNA was degraded by sonification (five pulses at 50 amplitudes). Protein concentration was determined, and equal amounts of protein were separated on a 9% SDS-PAGE gel. The proteins were transferred onto nitrocellulose membrane by a standard Western blotting protocol and the membranes were incubated with the following antibodies: ERα (Santa Cruz Biotechnology, sc-8002, RRID: AB_627558) and PCNA (Santa Cruz Biotechnology, sc-56, RRID: AB_628110), followed by incubation with HRP labeled Goat anti-mouse Immunoglobulins (DAKO, P0447, RRID: AB_2617137).
On the technique in general: Immunoblotting shows a protein as a band on a membrane.

The next assay concerns MCF-7 luc. Put plainly: Clonogenic assay (clonal expansion), MCF-7 cells expressing wild-type ER. The class given is cell-based. The settings on record: Homo sapiens, MCF7, 336 h. The procedure: (§1) Cells were seeded at a density of 1–2×10^3 cells/well in a 6-well plate and treated with increasing concentrations of the X compounds for 14–21 days. Medium and compounds were renewed every 7 days. The experiments were terminated by fixing the cells with methanol and the colonies formed were visualized after staining with 0.5% crystal violet (w/v) in 20% methanol (v/v). Plates were photographed and the area covered by the colonies was calculated using the ColonyArea Plugin for Fiji (RRID:SCR_003070).[20]

The next assay addresses T3, ERα full-length (Homo sapiens, UniProt P03372).
T3 construct: 34 nM ERα full-length and 1.4 nM Fluormone EL Red were incubated; purchased ThermoFisher A15884
T3 sequence (P03372 1-595): T2 sequence (P03372 1-595)
Put plainly: PolarScreen ERα Competitor Assay (fluorescence polarization). It counts as binding. The procedure: The PolarScreen Estrogen Receptor-Alpha Competitor Assay, Red (ThermoFisher, A15884) was used to determine if the X compounds bind to ERα. The assay was performed according to the manufacturer’s protocol.
(Fluorescence polarisation rises when a labelled molecule tumbles more slowly, as on binding a larger partner.)

The next assay deals with MCF-7 cells. In words: Clonogenic assay in MCF-7 cells with AHR antagonist CH223191. The class given is cell-based, human. As to conditions: MCF-7, 10 nM compound, 1 μM CH223191, 14 days. Here is the method: as §1
Setting [2] is: Figure 1B, MCF-7 luc, absence of E2, 14 days.
Where [3] appears, read: Figure 1C, MCF-7 luc + 10 nM E2, 14 days.

T1 sequence (P35869 11-437 limits assumed): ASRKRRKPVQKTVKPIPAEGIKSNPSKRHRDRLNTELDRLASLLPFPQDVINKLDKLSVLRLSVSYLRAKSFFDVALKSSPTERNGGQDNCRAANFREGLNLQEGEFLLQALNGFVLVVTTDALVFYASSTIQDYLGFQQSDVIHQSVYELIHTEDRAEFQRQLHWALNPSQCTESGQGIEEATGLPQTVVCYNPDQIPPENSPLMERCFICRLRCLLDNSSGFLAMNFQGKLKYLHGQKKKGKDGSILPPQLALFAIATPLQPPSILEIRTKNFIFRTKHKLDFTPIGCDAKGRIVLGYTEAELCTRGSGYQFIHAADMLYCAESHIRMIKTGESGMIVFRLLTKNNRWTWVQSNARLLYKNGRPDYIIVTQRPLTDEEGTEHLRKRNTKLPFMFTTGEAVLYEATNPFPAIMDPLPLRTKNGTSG
T1 sequence (P08238 whole entry partner): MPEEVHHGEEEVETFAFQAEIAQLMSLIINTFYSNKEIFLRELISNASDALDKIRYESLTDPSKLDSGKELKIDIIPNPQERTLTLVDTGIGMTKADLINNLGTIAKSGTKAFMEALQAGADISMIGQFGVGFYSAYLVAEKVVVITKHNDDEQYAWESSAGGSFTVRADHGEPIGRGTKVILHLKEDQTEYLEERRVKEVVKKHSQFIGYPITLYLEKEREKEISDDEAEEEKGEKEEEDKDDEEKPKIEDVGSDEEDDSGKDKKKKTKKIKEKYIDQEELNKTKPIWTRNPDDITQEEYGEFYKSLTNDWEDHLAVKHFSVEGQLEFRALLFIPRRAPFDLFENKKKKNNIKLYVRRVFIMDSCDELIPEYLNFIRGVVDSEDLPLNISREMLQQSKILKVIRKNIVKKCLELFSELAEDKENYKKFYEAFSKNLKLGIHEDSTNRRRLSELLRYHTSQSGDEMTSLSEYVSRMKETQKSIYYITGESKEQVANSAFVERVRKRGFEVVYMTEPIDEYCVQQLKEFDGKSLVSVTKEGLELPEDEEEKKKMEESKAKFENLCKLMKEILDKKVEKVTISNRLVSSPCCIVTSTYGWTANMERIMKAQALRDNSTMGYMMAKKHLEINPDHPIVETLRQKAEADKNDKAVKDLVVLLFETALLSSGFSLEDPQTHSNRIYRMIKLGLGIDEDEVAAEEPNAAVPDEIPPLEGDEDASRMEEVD
T1 sequence (O00170 whole entry partner): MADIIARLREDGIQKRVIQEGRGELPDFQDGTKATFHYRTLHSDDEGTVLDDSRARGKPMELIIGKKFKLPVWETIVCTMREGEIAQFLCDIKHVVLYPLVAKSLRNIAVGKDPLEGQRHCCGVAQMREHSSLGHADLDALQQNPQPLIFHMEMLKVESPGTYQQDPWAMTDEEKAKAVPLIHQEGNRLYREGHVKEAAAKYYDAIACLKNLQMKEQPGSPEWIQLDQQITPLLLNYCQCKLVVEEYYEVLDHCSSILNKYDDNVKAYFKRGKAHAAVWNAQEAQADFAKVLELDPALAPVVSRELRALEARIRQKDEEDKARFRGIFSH

As to `Fc1ccc(-c2cn3cc(C(F)(F)F)cc(Cl)c3n2)cc1` [X15695], the “thermal stabilization of AHR (nano-DSF)” value on AHR-Hsp90-XAP2 is given as “bona fide AHR ligands”. Also, the “Inhibition of Proliferation” value in assay [1] is “Yes”. Moreover, the “transcription activity of ERα (reporter)” value at hERα is on record as “reduced”. The “ERα destabilization (immunoblot)” value in the assay on ERα in MCF-7 cells was “most proficient in destabilizing ERα”. Moreover, the IC50 (in general, the concentration that inhibits the measured activity by half) came to 2.45 nM in the assay with MCF-7 luc (setting [2]); 7.96 nM with MCF-7 luc (setting [3]); 2.45 nM in the assay with MCF-7 luc (Figure 1D, MCF-7 luc, absence of E2, 14 days); 7.96 nM in the assay on MCF-7 luc (Figure 1E, MCF-7 luc + 10 nM E2, 14 days). For the same molecule, the “displacement of the Fluormone tracer from ERα” value (from here on “displacement”) on ERα full-length is recorded as “did not”. Moreover, the “inhibition of colony expansion in the presence of AHR antagonist CH223191” value (shortened to “inhibition of colony expansion”) in the assay with MCF-7 cells is “clearly abrogated by the AHR antagonist CH223191”.
As for `Cc1cc(Cl)c2nc(-c3ccc(F)cc3)cn2c1` [X19724], the “thermal stabilization of AHR (nano-DSF)” value on AHR-Hsp90-XAP2 is recorded as “bona fide AHR ligands”. The “Inhibition of Proliferation” value in assay [1] is listed as “Yes”. Also, the “transcription activity of ERα (reporter)” value on hERα is “reduced”. For the same molecule, the “ERα destabilization (immunoblot)” value with ERα in MCF-7 cells is “most proficient in destabilizing ERα”. The IC50 amounted to 7.41 nM in the assay with MCF-7 luc (setting [2]) and 15.2 nM in the assay with MCF-7 luc (setting [3]). For the same molecule, at ERα full-length, the “displacement” value was “did not”. The “inhibition of colony expansion” value with MCF-7 cells was “to a lesser extent”.
Turning to `Cc1cc(Cl)c2nc(-c3ccccc3)cn2c1` [X19728], at AHR-Hsp90-XAP2, the “thermal stabilization of AHR (nano-DSF)” value is reported as “bona fide AHR ligands”. Further, in assay [1], the “Inhibition of Proliferation” value is recorded as “Yes”. The “transcription activity of ERα (reporter)” value at hERα is “reduced”. In addition, the “ERα destabilization (immunoblot)” value with ERα in MCF-7 cells is “no significant ERα destabilization”. In the assay with MCF-7 luc (setting [3]), the IC50 came out at 10.3 nM. For the same molecule, the “displacement” value on ERα full-length is “did not”. In the assay on MCF-7 cells, the “inhibition of colony expansion” value is on record as “no effect on colony formation”.
